Experimental data: ChEMBL document CHEMBL5236632, “Membrane-Active Nonivamide Derivatives as Effective Broad-Spectrum Antimicrobials: Rational Design, Synthesis, and Biological Evaluation” (J Med Chem, 2022)
Values after ≈ are worked out from the molar mass of the structure shown. Active and inactive are the calls of the source. The calls are words filed in the database; no cut-off is given here.

Experiments:
Staphylococcus aureus [1] = experiment: Antibacterial activity against Staphylococcus aureus ATCC 29213 assessed as inhibition of visible growth measured after 18 to 24 hrs by broth dilution method; type: functional; conditions: time 18-24 hrs
Staphylococcus aureus [2] = experiment: Antibacterial activity against methicillin-resistant Staphylococcus aureus NCTC 10442 assessed as inhibition of visible growth measured after 18 to 24 hrs by broth dilution method; type: functional; conditions: time 18-24 hrs
Staphylococcus aureus [3] = experiment: Antibacterial activity against methicillin-resistant Staphylococcus aureus N315 assessed as inhibition of visible growth measured after 18 to 24 hrs by broth dilution method; type: functional; conditions: time 18-24 hrs
Escherichia coli = experiment: Antibacterial activity against Escherichia coli ATCC 25922 assessed as inhibition of visible growth measured after 18 to 24 hrs by broth dilution method; type: functional; conditions: time 18-24 hrs
[4] = Haemolytic activity in rabbit red blood cells incubated for 60 mins by k multi-mode reader relative to control; type: toxicity, cell-based, Oryctolagus cuniculus, Erythrocyte; conditions: for HC50 at 1 h: rabbit red blood cells
[5] = Selectivity ratio, HC50 for hemolytic activity in rabbit RBC to MIC for antibacterial activity against Staphylococcus aureus ATCC 29213; type: toxicity; conditions: rabbit red blood cells
[6] = Selectivity ratio, HC50 for hemolytic activity in rabbit RBC to MIC for antibacterial activity against methicillin-resistant Staphylococcus aureus NCTC 10442; type: toxicity; conditions: rabbit red blood cells
[7] = Selectivity ratio, HC50 for hemolytic activity in rabbit RBC to MIC for antibacterial activity against methicillin-resistant Staphylococcus aureus N315; type: toxicity; conditions: rabbit red blood cells
Staphylococcus aureus [8] = experiment: Drug resistance development in Staphylococcus aureus ATCC 29213 assessed as fold change in MIC measured after 20 passages; type: functional
Acinetobacter baumannii [9] = experiment: Antibacterial activity against Acinetobacter baumannii ATCC 17978 assessed as inhibition of visible growth measured after 18 to 24 hrs by broth dilution method; type: functional; conditions: time 18-24 hrs
Acinetobacter baumannii [10] = experiment: Antibacterial activity against Acinetobacter baumannii R2889 assessed as inhibition of visible growth measured after 18 to 24 hrs by broth dilution method; type: functional; conditions: time 18-24 hrs
Klebsiella pneumoniae [11] = experiment: Antibacterial activity against Klebsiella pneumoniae ATCC 10031 assessed as inhibition of visible growth measured after 18 to 24 hrs by broth dilution method; type: functional; conditions: time 18-24 hrs
Klebsiella pneumoniae [12] = experiment: Antibacterial activity against Klebsiella pneumoniae ATCC 14581 assessed as inhibition of visible growth measured after 18 to 24 hrs by broth dilution method; type: functional; conditions: time 18-24 hrs
[13] = Selectivity ratio, HC50 for hemolytic activity in rabbit RBC to MIC for antibacterial activity against Pseudomonas aeruginosa ATCC 9027; type: toxicity; conditions: rabbit red blood cells
[14] = Selectivity ratio, HC50 for hemolytic activity in rabbit RBC to MIC for antibacterial activity against Acinetobacter baumannii ATCC 17978; type: toxicity; conditions: rabbit red blood cells
[15] = Selectivity ratio, HC50 for hemolytic activity in rabbit RBC to MIC for antibacterial activity against Acinetobacter baumannii R2889; type: toxicity; conditions: rabbit red blood cells
[16] = Selectivity ratio, HC50 for hemolytic activity in rabbit RBC to MIC for antibacterial activity against Klebsiella pneumoniae ATCC 10031; type: toxicity; conditions: rabbit red blood cells
[17] = Selectivity ratio, HC50 for hemolytic activity in rabbit RBC to MIC for antibacterial activity against Klebsiella pneumoniae ATCC 14581; type: toxicity; conditions: rabbit red blood cells
Staphylococcus aureus [18] = experiment: Antibacterial activity against Staphylococcus aureus ATCC 29213 assessed as reduction in bacterial load at 8 time of MIC measured after 8 hrs by time kill assay; type: functional
Cell membrane [19] = experiment: Induction of outer membrane permeability in Escherichia coli ATCC 25922 assessed as increase fluoresence intensity at 4 to 8 times of MIC measured for 60 mins by NPN uptake assay; type: subcellular
Cell membrane [20] = experiment: Induction of membrane depolarization in Staphylococcus aureus ATCC 29213 assessed as increase in fluorescence intensity at 4 to 8 times MIC measured for 60 mins by DiSC3(5) dye based fluorescence method; type: subcellular
Cell membrane [21] = experiment: Induction of membrane depolarization in Escherichia coli ATCC 25922 assessed as increase in fluorescence intensity at 4 to 8 times MIC measured for 60 mins by DiSC3(5) dye based fluorescence method; type: subcellular

SMILES | MIC (Staphylococcus aureus [1]) [µg/mL] | MIC (Staphylococcus aureus [2]) [µg/mL] | MIC (Staphylococcus aureus [3]) [µg/mL] | MIC (Escherichia coli) [µg/mL] | HC50 at 1 h [4] [µg/mL] | selectivity ratio [5] | selectivity ratio [6] | selectivity ratio [7] | other results
CCCCCCCCC(=O)NCc1ccc(OCCCCCCNCCN(CCNC(=N)N)CCNC(=N)N)c(OCCCCCCNCCN(CCNC(=N)N)CCNC(=N)N)c1 | 1.56 (≈ 1.73 µM) | 1.56 (≈ 1.73 µM) | 1.56 (≈ 1.73 µM) | 12.5 (≈ 13.8 µM) | > 200 | > 128 | > 128 | > 128 | 
CCCCCCCCC(=O)NCc1ccc(OCCCCN(CC)CC)c(OC)c1 | > 50 | > 50 | > 50 | > 50 | > 200 |  |  |  | 
CCCCCCCCC(=O)NCc1ccc(OCCCCNC(=N)N)c(OC)c1 | 12.5 (≈ 30.7 µM) | 6.25 (≈ 15.4 µM) | 6.25 (≈ 15.4 µM) | > 50 | > 200 | > 16 | > 16 | > 16 | 
CCCCCCCCC(=O)NCc1ccc(OCCCCN)c(OC)c1 | > 50 | > 50 | > 50 | > 50 | > 200 |  |  |  | 
COc1cc(CNC(=O)CCCC/C=C/C(C)C)ccc1OCCCCCCN | > 50 | > 50 | > 50 | > 50 | > 200 |  |  |  | 
CCCCCCCCC(=O)NCc1ccc(OCCNC(=N)N)c(OC)c1 | 50 (≈ 132 µM) | 25 (≈ 66 µM) | 25 (≈ 66 µM) | > 50 | > 200 | > 4 | > 4 | > 4 | 
CCCCCCCCC(=O)NCc1ccc(OCCCCCCN)c(OC)c1 | > 50 | > 50 | > 50 | > 50 | > 200 |  |  |  | 
CCCCCCCCC(=O)NCc1ccc(OCCCCCCCCCCNC(=N)N)c(OC)c1 | 6.25 (≈ 12.7 µM) | 6.25 (≈ 12.7 µM) | 6.25 (≈ 12.7 µM) | > 50 | > 200 | > 32 | > 32 | > 32 | 
CCCCCCCCC(=O)NCc1ccc(OCC(=O)N[C@@H](CCCNC(=N)N)C(=O)N[C@@H](CCCNC(=N)N)C(=O)N[C@@H](CCCNC(=N)N)C(=O)OC)c(OC)c1 | > 50 | 50 (≈ 59.9 µM) | > 50 | > 50 | > 200 |  |  |  | 
CCCCCCCCC(=O)NCc1ccc(OCC(=O)N[C@@H](CCCNC(=N)N)C(=O)OC)c(OC)c1 | 25 (≈ 47.9 µM) | 25 (≈ 47.9 µM) | 50 (≈ 95.8 µM) | > 50 | > 200 | > 4 | > 4 | > 4 | 
CCCCCCCCC(=O)NCc1ccc(OCCCCN(CCCN(C)C)CCCN(C)C)c(OC)c1 | > 50 | > 50 | > 50 | > 50 | > 200 |  |  |  | 
COc1cc(CNC(=O)CCCC/C=C/C(C)C)ccc1OCCCCCCNCCN(CCNC(=N)N)CCNC(=N)N | 6.25 (≈ 10.1 µM) | 3.12 (≈ 5.06 µM) | 3.12 (≈ 5.06 µM) | 50 (≈ 80.9 µM) | > 200 | > 32 | > 32 | > 32 | 
CCCCCCCCC(=O)NCc1ccc(OCCCCCCCCNC(=N)N)c(OC)c1 | 1.56 (≈ 3.37 µM) | 1.56 (≈ 3.37 µM) | 1.56 (≈ 3.37 µM) | > 50 | > 200 | > 128 | > 128 | > 128 | 
CCCCCCCCC(=O)NCc1ccc(OCCCCCNC(=N)N)c(OC)c1 | 6.25 (≈ 14.9 µM) | 6.25 (≈ 14.9 µM) | 6.25 (≈ 14.9 µM) | 50 (≈ 119 µM) | > 200 | > 32 | > 32 | > 32 | 
CCn1cc(C(=O)O)c(=O)c2cc(F)c(N3CCNCC3)cc21 [NORFLOXACIN] |  |  |  |  |  |  |  |  | fold change (FC) (Staphylococcus aureus [8]): 128
CC[C@H](C)[C@H](NC(=O)CN)C(=O)NCC(=O)N[C@@H](C)C(=O)N[C@H](C(=O)N[C@@H](CC(C)C)C(=O)N[C@@H](CCCCN)C(=O)N[C@H](C(=O)N[C@@H](CC(C)C)C(=O)N[C@H](C(=O)N[C@H](C(=O)NCC(=O)N[C@@H](CC(C)C)C(=O)N1CCC[C@H]1C(=O)N[C@@H](C)C(=O)N[C@@H](CC(C)C)C(=O)N[C@H](C(=O)N[C@@H](CO)C(=O)N[C@@H](Cc1c[nH]c2ccccc12)C(=O)N[C@H](C(=O)N[C@@H](CCCCN)C(=O)N[C@@H](CCCNC(=N)N)C(=O)N[C@@H](CCCCN)C(=O)N[C@@H](CCCNC(=N)N)C(=O)N[C@@H](CCC(N)=O)C(=O)N[C@@H](CCC(N)=O)C(N)=O)[C@@H](C)CC)[C@@H](C)CC)[C@@H](C)O)[C@@H](C)O)C(C)C)C(C)C [MELITTIN] |  |  |  |  |  | 6.1 | 6.1 | 6.1 | HC5 ([4]; erythrocyte, 1 h): 5.4 µg/mL; MIC (Acinetobacter baumannii [9]): 3.12 µg/mL (≈ 1.1 µM); MIC (Acinetobacter baumannii [10]): 3.12 µg/mL (≈ 1.1 µM); MIC (Klebsiella pneumoniae [11]): 6.25 µg/mL (≈ 2.2 µM); MIC (Klebsiella pneumoniae [12]): 6.25 µg/mL (≈ 2.2 µM); selectivity ratio [13]: 3.1; selectivity ratio [14]: 3.1; selectivity ratio [15]: 3.1; selectivity ratio [16]: 3.1; selectivity ratio [17]: 3.1
CCCCCCCCC(=O)NCc1ccc(OCCCCCCNCCN(CCN)CCN)c(OC)c1 | 3.12 (≈ 5.99 µM) | 3.12 (≈ 5.99 µM) | 3.12 (≈ 5.99 µM) | > 50 | > 200 | > 64 | > 64 | > 64 | 
CCN(CC)CCCCOc1ccc(CNC(=O)CCCC/C=C/C(C)C)cc1OC | > 50 | > 50 | > 50 | > 50 | > 200 |  |  |  | 
CN[C@H](CC(C)C)C(=O)N[C@H]1C(=O)N[C@@H](CC(N)=O)C(=O)N[C@H]2C(=O)N[C@H]3C(=O)N[C@H](C(=O)N[C@H](C(=O)O)c4cc(O)cc(O)c4-c4cc3ccc4O)[C@H](O)c3ccc(c(Cl)c3)Oc3cc2cc(c3O[C@@H]2O[C@H](CO)[C@@H](O)[C@H](O)[C@H]2O[C@H]2C[C@](C)(N)[C@H](O)[C@H](C)O2)Oc2ccc(cc2Cl)[C@H]1O [VANCOMYCIN] | 1.56 (≈ 1.08 µM) | 0.78 (≈ 0.538 µM) | 0.78 (≈ 0.538 µM) | > 50 |  |  |  |  | Activity (Staphylococcus aureus [18]): 2.44 log10CFU/ml
CCCCCCCCC(=O)NCc1ccc(OCCCCNC(=N)N)c(OCCCCNC(=N)N)c1 | 6.25 (≈ 12.4 µM) | 3.12 (≈ 6.18 µM) | 3.12 (≈ 6.18 µM) | 50 (≈ 98.9 µM) | > 200 | > 32 | > 32 | > 32 | 
COc1cc(CNC(=O)CCCC/C=C/C(C)C)ccc1OCCCCNC(=N)N | 3.12 (≈ 7.47 µM) | 3.12 (≈ 7.47 µM) | 6.25 (≈ 14.9 µM) | 50 (≈ 119 µM) | > 200 | > 32 | > 32 | > 32 | 
COc1cc(CNC(=O)CCCC/C=C/C(C)C)ccc1O [CAPSAICIN] | > 50 | > 50 | > 50 | > 50 | > 200 |  |  |  | Activity (Cell membrane [19]): inactive; Activity (Cell membrane [20]): inactive; Activity (Cell membrane [21]): inactive
COc1cc(CNC(=O)CCCC/C=C/C(C)C)ccc1OCCCCCCNC(=N)N | 6.25 (≈ 14 µM) | 3.12 (≈ 7 µM) | 3.12 (≈ 7 µM) | > 50 | > 200 | > 32 | > 32 | > 32 | 
CCCCCCCCC(=O)NCc1ccc(O)c(O)c1 | > 50 | > 50 | > 50 | > 50 | > 200 |  |  |  | 
CCCCCCCCC(=O)NCc1ccc(OCCCCCCCCCCCCNC(=N)N)c(OC)c1 | > 50 | 25 (≈ 48.2 µM) | 25 (≈ 48.2 µM) | > 50 | > 200 |  |  |  | 
CCCCCCCCC(=O)NCc1ccc(OCCCNC(=N)N)c(OC)c1 | 25 (≈ 63.7 µM) | 12.5 (≈ 31.8 µM) | 12.5 (≈ 31.8 µM) | > 50 | > 200 | > 8 | > 8 | > 8 | 
CCCCCCCCC(=O)NCc1ccc(OCCCCCCNC(=N)N)c(OC)c1 | 3.12 (≈ 7.19 µM) | 1.56 (≈ 3.59 µM) | 3.12 (≈ 7.19 µM) | > 50 | > 200 | > 64 | > 64 | > 64 | 
CCCCCCCCC(=O)NCc1ccc(OCCCCNCC)c(OC)c1 | > 50 | > 50 | > 50 | > 50 | > 200 |  |  |  | 
